This note sets out measurements from patent publication US20250281424A1 (New York Blood Center, Inc, priority 2020, published 2025).

The IC50 is the concentration that gives 50% inhibition.

In the test the target is T1, human PF4 (Homo sapiens, UniProt P02776).
T1 construct: PF4 is a 70 amino acid, lysine-rich 7.8 kDa platelet-specific protein; made in house; host or cells: Escherichia coli BL21DE3 pLysS (pT7-7) and/or Drosophila S2 cells
T1 sequence (P02776 32-101): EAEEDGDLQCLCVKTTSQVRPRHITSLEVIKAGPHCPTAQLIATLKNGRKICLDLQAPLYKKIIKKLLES
Kind of test: Inhibition of PF4 tetramer formation (BS3 cross-linking, SDS-PAGE). It counts as biochemical. The settings on record: for inhibition at 5 µM: 5 μM inhibitor; for inhibition at 5 µM / inhibition at 10 µM: read-out: % inhibition of PF4 tetramer formation at single concentration of inhibitor; for inhibition at 10 µM: 10 μM inhibitor (column A); for IC50: read-out: IC50 of PF4 tetramer formation inhibition. A digest of the protocol:
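Monomer, dimer, trimer and tetramer fractions were quantified by densitometry after reducing 12% SDS-PAGE of BS3-cross-linked (0.2 mM, 30 min, room temperature) PF4. Before cross-linking, 10 μg/ml E. coli-expressed human WT PF4 in PBS was exposed to compound for 15 min at 37° C or 60 min at room temperature; controls lacked compound.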

`O=C(c1ccc2c(c1)C(=O)C(C(=O)Cn1cnnn1)C2=O)c1ccc2c(c1)C(=O)C(C(=O)Cn1cnnn1)C2=O` (centres unmarked) [Example 168, 5-{1,3-dioxo-2-[2-(1H-1,2,3,4-tetrazol-1-yl)acetyl]-2,3-dihydro-1H-indene-5-carbonyl}-2-[2-(1H-1,2,3,4-tetrazol-1-yl)acetyl]-2,3-dihydro-1H-indene-1,3-dione]: the inhibition at 5 µM was determined as 68%, the inhibition at 10 µM is 89% and the IC50 turned out to be 4.3 µM.

Turning to `O=C(Cn1cnnn1)C1C(=O)c2ccc(S(=O)(=O)c3ccc4c(c3)C(=O)C(C(=O)Cn3cnnn3)C4=O)cc2C1=O` (centres unmarked) [Example 169, 5-({1,3-dioxo-2-[2-(1H-1,2,3,4-tetrazol-1-yl)acetyl]-2,3-dihydro-1H-inden-5-yl}sulfonyl)-2-[2-(1H-1,2,3,4-tetrazol-1-yl)acetyl]-2,3-dihydro-1H-indene-1,3-dione], the inhibition at 5 µM was determined as 70%, the inhibition at 10 µM was determined as 86% and the IC50 came out at 3 µM.

Regarding `CC(C)(C)OC(=O)N[C@@H](C(=O)C1C(=O)c2ccc(C(=O)c3ccc4c(c3)C(=O)C(C(=O)[C@H](NC(=O)OC(C)(C)C)c3ccccc3)C4=O)cc2C1=O)c1ccccc1` (stereo partly drawn) [Example 170, tert-butyl N-[(1R)-2-(5-{2-[(2R)-2-{[(tert-butoxy)carbonyl]amino}-2-phenylacetyl]-1,3-dioxo-2,3-dihydro-1H-indene-5-carbonyl}-1,3-dioxo-2,3-dihydro-1H-inden-2-yl)-2-oxo-1-phenylethyl]carbamate], the inhibition at 5 µM was 76%, the inhibition at 10 µM came out at 85% and the 50% inhibitory concentration (IC50) turned out to be 3.4 µM.

Turning to `CC(C)CCCC(=O)C1C(=O)c2ccc(S(=O)(=O)c3ccc4c(c3)C(=O)C(C(=O)CCCC(C)C)C4=O)cc2C1=O` (centres unmarked) [Example 171, 2-(5-methylhexanoyl)-5-{[2-(5-methylhexanoyl)-1,3-dioxo-2,3-dihydro-1H-inden-5-yl]sulfonyl}-2,3-dihydro-1H-indene-1,3-dione], the inhibition at 5 µM stood at 62% and the inhibition at 10 µM worked out at 75%.

For `N[C@@H](C(=O)C1C(=O)c2ccc(S(=O)(=O)c3ccc4c(c3)C(=O)C(C(=O)[C@H](N)c3ccccc3)C4=O)cc2C1=O)c1ccccc1` (stereo partly drawn) [Example 172, 2-[(2R)-2-amino-2-phenylacetyl]-5-({2-[(2R)-2-amino-2-phenylacetyl]-1,3-dioxo-2,3-dihydro-1H-inden-5-yl}sulfonyl)-2,3-dihydro-1H-indene-1,3-dione], the inhibition at 5 µM stood at 81%, the inhibition at 10 µM turned out to be 93% and the IC50 was found to be 1.6 µM.

On to `CC(C)(C)OC(=O)NCC(=O)C1C(=O)c2ccc(C(=O)c3ccc4c(c3)C(=O)C(C(=O)CNC(=O)OC(C)(C)C)C4=O)cc2C1=O` (centres unmarked) [Example 173, tert-butyl N-(2-{5-[2-(2-{[(tert-butoxy)carbonyl]amino}acetyl)-1,3-dioxo-2,3-dihydro-1H-indene-5-carbonyl]-1,3-dioxo-2,3-dihydro-1H-inden-2-yl}-2-oxoethyl) carbamate], for which the inhibition at 5 µM turned out to be 87%, the inhibition at 10 µM amounted to 97% and the IC50 is 2.2 µM.

Regarding `CC(C)(C)OC(=O)NCC(=O)C1C(=O)c2ccc(S(=O)(=O)c3ccc4c(c3)C(=O)C(C(=O)CNC(=O)OC(C)(C)C)C4=O)cc2C1=O` (centres unmarked) [Example 174, tert-butyl N-[2-(5-{[2-(2-{[(tert-butoxy)carbonyl]amino}acetyl)-1,3-dioxo-2,3-dihydro-1H-inden-5-yl]sulfonyl}-1,3-dioxo-2,3-dihydro-1H-inden-2-yl)-2-oxoethyl]carbamate], the inhibition at 5 µM was 84%, the inhibition at 10 µM amounted to 94% and the IC50 turned out to be 11 µM.

Regarding `CC(=O)NCC(=O)C1C(=O)c2ccc(S(=O)(=O)c3ccc4c(c3)C(=O)C(C(=O)CNC(C)=O)C4=O)cc2C1=O` (centres unmarked) [Example 175, N-[2-(5-{[2-(2-acetamidoacetyl)-1,3-dioxo-2,3-dihydro-1H-inden-5-yl]sulfonyl}-1,3-dioxo-2,3-dihydro-1H-inden-2-yl)-2-oxoethyl]acetamide], the inhibition at 5 µM was determined as 90%, the inhibition at 10 µM was 97% and the IC50 is 1.1 µM.

In the case of `COCCC(=O)C1C(=O)c2ccc(C(=O)c3ccc4c(c3)C(=O)C(C(=O)CCOC)C4=O)cc2C1=O` (centres unmarked) [Example 176, 2-(3-methoxypropanoyl)-5-[2-(3-methoxypropanoyl)-1,3-dioxo-2,3-dihydro-1H-indene-5-carbonyl]-2,3-dihydro-1H-indene-1,3-dione], the inhibition at 5 µM came out at 21% and the inhibition at 10 µM stood at 77%.

As for `COCCC(=O)C1C(=O)c2ccc(S(=O)(=O)c3ccc4c(c3)C(=O)C(C(=O)CCOC)C4=O)cc2C1=O` (centres unmarked) [Example 177, 2-(3-methoxypropanoyl)-5-{[2-(3-methoxypropanoyl)-1,3-dioxo-2,3-dihydro-1H-inden-5-yl]sulfonyl}-2,3-dihydro-1H-indene-1,3-dione], the inhibition at 5 µM turned out to be 0% and the inhibition at 10 µM turned out to be 17%.

As for `COCCOCCC(=O)C1C(=O)c2ccc(S(=O)(=O)c3ccc4c(c3)C(=O)C(C(=O)CCOCCOC)C4=O)cc2C1=O` (centres unmarked) [Example 178, 2-[3-(2-methoxyethoxy)propanoyl]-5-({2-[3-(2-methoxyethoxy)propanoyl]-1,3-dioxo-2,3-dihydro-1H-inden-5-yl}sulfonyl)-2,3-dihydro-1H-indene-1,3-dione], the inhibition at 5 µM came to 22% and the inhibition at 10 µM was 75%.

As for `C[C@H](NC(=O)OC(C)(C)C)C(=O)C1C(=O)c2ccc(C(=O)c3ccc4c(c3)C(=O)C(C(=O)[C@H](C)NC(=O)OC(C)(C)C)C4=O)cc2C1=O` (stereo partly drawn) [Example 179, tert-butyl N-[(2S)-1-(5-{2-[(2S)-2-{[(tert-butoxy)carbonyl]amino}propanoyl]-1,3-dioxo-2,3-dihydro-1H-indene-5-carbonyl}-1,3-dioxo-2,3-dihydro-1H-inden-2-yl)-1-oxopropan-2-yl]carbamate], the inhibition at 5 µM was determined as 81%, the inhibition at 10 µM worked out at 92% and the IC50 is ~6 µM.

Take `C[C@H](NC(=O)OC(C)(C)C)C(=O)C1C(=O)c2ccc(S(=O)(=O)c3ccc4c(c3)C(=O)C(C(=O)[C@H](C)NC(=O)OC(C)(C)C)C4=O)cc2C1=O` (stereo partly drawn) [Example 180, tert-butyl N-[(2S)-1-[5-({2-[(2S)-2-{[(tert-butoxy)carbonyl]amino}propanoyl]-1,3-dioxo-2,3-dihydro-1H-inden-5-yl}sulfonyl)-1,3-dioxo-2,3-dihydro-1H-inden-2-yl]-1-oxopropan-2-yl]carbamate]: the inhibition at 5 µM is 73%, the inhibition at 10 µM amounted to 90% and the IC50 was ~6 µM.

Take `CC(=O)NCC(=O)C1C(=O)c2ccc(C(=O)c3ccc4c(c3)C(=O)C(C(=O)CNC(C)=O)C4=O)cc2C1=O` (centres unmarked) [Example 181, N-(2-{5-[2-(2-acetamidoacetyl)-1,3-dioxo-2,3-dihydro-1H-indene-5-carbonyl]-1,3-dioxo-2,3-dihydro-1H-inden-2-yl}-2-oxoethyl)acetamide]: the inhibition at 5 µM was found to be 86%, the inhibition at 10 µM came out at 96% and the 50% inhibitory concentration (IC50) was determined as 1.6 µM.

Consider `CC(C)(C)OC(=O)N[C@@H](C(=O)C1C(=O)c2ccc(S(=O)(=O)c3ccc4c(c3)C(=O)C(C(=O)[C@H](NC(=O)OC(C)(C)C)c3ccccc3)C4=O)cc2C1=O)c1ccccc1` (some centres unmarked) [Example 182], for which the inhibition at 5 µM came out at 74%, the inhibition at 10 µM was 88% and the IC50 worked out at 5.7 µM.

In the case of `O=C(c1ccc2c(c1)C(=O)C(C(=O)CN1CCCC1=O)C2=O)c1ccc2c(c1)C(=O)C(C(=O)CN1CCCC1=O)C2=O` (centres unmarked) [Example 183, 5-{1,3-dioxo-2-[2-(2-oxopyrrolidin-1-yl)acetyl]-2,3-dihydro-1H-indene-5-carbonyl}-2-[2-(2-oxopyrrolidin-1-yl)acetyl]-2,3-dihydro-1H-indene-1,3-dione], the inhibition at 5 µM was 87%, the inhibition at 10 µM turned out to be 100% and the IC50 stood at 4.3 µM.

Regarding `O=C(CN1CCCC1=O)C1C(=O)c2ccc(S(=O)(=O)c3ccc4c(c3)C(=O)C(C(=O)CN3CCCC3=O)C4=O)cc2C1=O` (centres unmarked) [Example 184, 5-({1,3-dioxo-2-[2-(2-oxopyrrolidin-1-yl)acetyl]-2,3-dihydro-1H-inden-5-yl}sulfonyl)-2-[2-(2-oxopyrrolidin-1-yl)acetyl]-2,3-dihydro-1H-indene-1,3-dione], the inhibition at 5 µM came out at 87%, the inhibition at 10 µM was found to be 95% and the IC50 was determined as 2 µM.

For `CC(C)(C)CC(=O)NCC(=O)C1C(=O)c2ccc(C(=O)c3ccc4c(c3)C(=O)C(C(=O)CNC(=O)CC(C)(C)C)C4=O)cc2C1=O` (centres unmarked) [Example 185, N-[2-(5-{2-[2-(3,3-dimethylbutanamido)acetyl]-1,3-dioxo-2,3-dihydro-1H-indene-5-carbonyl}-1,3-dioxo-2,3-dihydro-1H-inden-2-yl)-2-oxoethyl]-3,3-dimethylbutanamide], the inhibition at 5 µM was 89%, the inhibition at 10 µM amounted to 94% and the IC50 turned out to be 4.4 µM.

Take `CC(C)(C)CC(=O)NCC(=O)C1C(=O)c2ccc(S(=O)(=O)c3ccc4c(c3)C(=O)C(C(=O)CNC(=O)CC(C)(C)C)C4=O)cc2C1=O` (centres unmarked) [Example 186, N-{2-[5-({2-[2-(3,3-dimethylbutanamido)acetyl]-1,3-dioxo-2,3-dihydro-1H-inden-5-yl}sulfonyl)-1,3-dioxo-2,3-dihydro-1H-inden-2-yl]-2-oxoethyl}-3,3-dimethylbutanamide]: the inhibition at 5 µM amounted to 95%, the inhibition at 10 µM is 95% and the half-maximal inhibitory concentration (IC50) is 2.6 µM.
